Measurements reported in PubChem BioAssay (NCI).
Where “and” joins values, the source holds several entries; their conditions need not be identical. Equal values may be shown once.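 Following 48 hours of exposure in 96-well plates, responses at five concentrations were used to interpolate endpoints linearly. GI50: concentration for 50% inhibition of growth. TGI: total growth inhibition.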

Test system: MDA-MB-468 breast
Experiment: NCI anticancer screen, dose series, 48 h

COc1ccc(-c2c(-c3cc(OC)c(OC)c(OC)c3)noc2N)cc1
GI50: < 14.3 nM
TGI: 1100 nM

COc1cc(-c2nn(-c3cccc(NC(=O)c4ccc(N5CCOCC5)c(C(F)(F)F)c4)c3)cc2-c2ccncc2)ccc1Cl
GI50: 183 nM
TGI: 781 nM

COc1cnc2c(c1)C(=O)c1c-2n(CCCNC(C)C)c(=O)c2cc(F)ccc12
GI50: 226 nM
TGI: 702 nM

Cc1ccc(-c2nc(N3CCCNCC3)c3oc(-c4ccccc4)nc3n2)cc1
GI50: 1550 nM
TGI: 3240 nM

CC/C(=C(/c1ccc(O)cc1)c1ccc(OCCN2CCCCC2)cc1)c1ccc(OC)cc1
GI50: 1370 nM
TGI: 3220 nM

CCOC(=O)[C@@H](C)C[C@H](Cc1ccccc1)NC(=O)c1csc([C@@H](C[C@H](C(C)C)N(C)C(=O)[C@H](CC)NC(=O)[C@H]2CCCCN2C)OC(C)=O)n1
GI50: < 1.67 nM
TGI: > 12600 nM

CN1CC(CNC(=O)OCc2ccccc2)CC2c3cccc4c3c(cn4C)CC21 (configuration not stated)
GI50: 1610 nM
TGI: 3120 nM

COc1ccc(-c2nc(N3CCN(C(=O)C4CCCCC4)CC3)c3c4c(sc3n2)CCCC4)cc1
GI50: 29100 nM
TGI: > 100000 nM

CC1=C([Te]c2ccc(O)cc2)C(=O)c2ccccc2C1=O
GI50: 697 nM
TGI: 2170 nM

CCCCCCc1nc2nc(Cl)c(Cl)nc2[nH]1
GI50: 2900 nM
TGI: > 100000 nM

COC(=O)[C@H](Cc1ccc(O)cc1)NC(=O)[C@@H](OC)[C@@H]1Cc2cc3cc(OC4CC(OC5CC(O)C(O)C(C)O5)C(O)C(C)O4)c(C)c(O)c3c(O)c2C(=O)[C@H]1OC1CC(OC2CC(OC3CC(C)(O)C(O)C(C)O3)C(O)C(C)O2)C(O)C(C)O1 (some centres not stated)
GI50: 67.2 nM
TGI: 839 nM

Cc1nc2cnc(N)c(C#Cc3cncc(C(=O)Nc4ccc(Cl)c(C(F)(F)F)c4)c3)c2nc1C
GI50: 2870 nM
TGI: 11600 nM

C/C(=C(\c1ccc(OCCN2CCCCCC2)cc1)c1ccc(OC(=O)Cc2ccccc2)cc1)c1ccc(Cl)cc1
GI50: 1990 nM
TGI: 4380 nM

CN(C)CCCNC(=O)c1cncnc1Nc1ccc(OCc2cccc(F)c2)c(Cl)c1
GI50: 1550 nM
TGI: 3020 nM

O=C(/C(=C/c1ccc([N+](=O)[O-])cc1)SCc1ccc(F)cc1)c1ccc(Cl)cc1
GI50: 9460 nM
TGI: 38700 nM

CCc1ccc2c(c1)N(CCO)C1=C(C(=O)OC1)C2c1cccc(Cl)c1 (configuration not stated)
GI50: 239 nM
TGI: 861 nM

C[C@H]1[C@H]2[C@H]3CC[C@@H]4[C@@]5(C)C/C(=C/c6cccnc6)C(=O)C(C)(C)[C@@H]5CC[C@@]4(C)[C@]3(C)CC[C@]23CO[C@]1(C)[C@@H](C(=O)/C=C\c1cccnc1)C3
GI50: 864 nM
TGI: 2390 nM

CCS(=O)(=O)Nc1cccc(Nc2c3cccc(C)c3nc3c(C)cccc23)c1OC
GI50: 2240 nM
TGI: 25500 nM

Nc1c(C(=O)c2ccc(CCCN3CCOCC3)cc2)cnn1-c1ccc(F)cc1
GI50: 8190 nM
TGI: > 25000 nM

O=S(=O)(Nc1cc(Cl)ccc1Cl)c1ccc(-c2cnc(C3CC3)o2)cc1
GI50: 821 nM
TGI: 30100 nM

COc1cc(-c2ncn(/C=C\C(=O)OC(C)C)n2)cc(C(F)(F)F)c1
GI50: 126 nM and 141 nM
TGI: 670 nM and 1240 nM

O=C(NO)c1ccc(Cn2c(=O)n(-c3ccccc3F)c(=O)c3ccccc32)cc1
GI50: 1180 nM
TGI: 3210 nM

CNC(=O)Oc1cc(C)c(/C=C/c2cncc(C(=O)NC)c2)c(C)c1
GI50: 11000 nM
TGI: > 25000 nM

O=C(Nc1nc2ccc(F)cc2s1)c1cccnc1Nc1ccc(Cl)cc1
GI50: 1610 nM
TGI: > 100000 nM

CCN(CC)CCNc1cc(-c2cccc(OC(F)(F)F)c2)nc2ccc(N3CCCC3)cc12
GI50: 1640 nM and 1840 nM
TGI: 3180 nM and 3610 nM

Cc1cc(Oc2ccc3nc(COc4ccc(CC5SC(=O)NC5=O)cc4)n(C)c3c2)cc(C)c1N (configuration not stated)
GI50: 25900 nM
TGI: > 93600 nM

COc1cccc2c1c(C1=C(c3cn(C)c4ccccc34)C(=O)NC1=O)cn2C
GI50: > 25000 nM
TGI: > 25000 nM

C=CN(C)S(C)(=O)=O
GI50: > 100000 nM
TGI: > 100000 nM

O=C1OC(c2ccccc2)(c2cc(Br)c(O)c(Br)c2)c2ccccc21 (configuration not stated)
GI50: 27000 nM
TGI: 90900 nM

c1ccc(CN=C(NCc2ccccc2)NCc2ccccc2)cc1
GI50: 2290 nM
TGI: 5380 nM

COc1cc(OC)c(NC(=O)c2cc3ccccc3cc2O)cc1Cl
GI50: 3120 nM
TGI: 8240 nM

CCc1cc2c(cc1N1CCC(N3CCOCC3)CC1)C(C)(C)c1[nH]c3cc(C#N)ccc3c1C2=O
GI50: 1800 nM and 2050 nM and 2140 nM
TGI: 5250 nM and 5670 nM and 7850 nM

CCN(CC)CCCC(C)N=c1cc(Nc2cc(=NC(C)CCCN(CC)CC)c3cc(OC)ccc3o2)oc2ccc(OC)cc12 (configuration not stated)
GI50: 543 nM
TGI: 1190 nM

O=C(NCc1ccncc1)C12CC3CC(C1)CC(c1ccc(Cl)cc1)(C3)C2
GI50: 6580 nM
TGI: 21100 nM

Cc1ncsc1-c1ccc(CNC(=O)[C@@H]2C[C@@H](O)CN2C(=O)[C@@H](NC(=O)C2(C#N)CC2)C(C)(C)C)cc1
GI50: 54500 nM
TGI: > 100000 nM

Cc1cc(O)cc(C)c1/C=C/c1cncc(-c2nn[nH]n2)c1
GI50: > 25000 nM
TGI: > 25000 nM
